According to article PMC4186430, “Modeling of age-dependent amyloid accumulation and γ-secretase inhibition of soluble and insoluble Aβ in a transgenic mouse model of amyloid deposition” (Pharmacology Research & Perspectives, 2013):
Marks after values point to notes of the source that are not given here.

Assays:
[1] = Fraction unbound in brain, rat brain slice uptake method; format: in vitro ADME, Sprague-Dawley rats; conditions: male, Sprague-Dawley, brain slices (coronal slices of striatal areas, 300 μm), observed, 1 μmol/L compound, 37°C, read-out: fu,br (brain unbound fraction)
Method: Determination of the fraction of compound unbound in the brain was determined in a rat brain slice uptake method (Fridén et al. [2009]; Borgegård et al. [2011]). In short, male Sprague-Dawley rats were decapitated under isoflurane anesthesia. The brains were immersed in an ice-cold oxygenated extracellular fluid (ECF) buffer. Coronal slices of the striatal areas (300 μm) were preincubated in a 10 mL ECF buffer for 5 min at 37°C followed by incubation with 1 μmol/L compound in an ECF buffer for 5 h at 37°C under 5% CO2 in oxygen. After incubation, brain slices were weighed and homogenized in nine volumes (w/v) of ECF buffer. The slice homogenates and ECF buffer were stored at −20°C prior to analysis. To 50 μL homogenized tissue, 150 μL ice-cold acetonitrile containing an internal standard was added in a precipitation plate. After mixing and centrifugation (4°C, 4000 rpm, 20 min), supernatant was transferred to the analysis plate and analyzed by LC/MS/MS.

soluble Aβ40 [2] = test system: soluble Aβ40; parameters: method as in Townsend et al. [2010]; conditions: 12-month-old Tg2576 mice; 3-month MRK-560 treatment; ref Townsend et al. [2010]; cited from earlier work
soluble Aβ40 [3] = assay: Soluble (DEA) brain Aβ40 levels in Tg2576 mice after MRK-560, ELISA; format: in vivo, Tg2576 transgenic mice
Excerpt: (§1) C57BL/6 female mice (Harlan Laboratories, Horst, The Netherlands), Tg2576 transgenic female mice (Taconics, Georgetown, NY), overexpressing human APP with the Swedish mutation (Hsiao et al. [1996]), and Tg2576 wild-type littermates were used in the experiments. The C57BL/6 and wild-type littermates were only used for pharmacokinetic PK sampling and analysis. The housing environment was humidity- and temperature-controlled with a constant 12-h light/dark cycle. The animals were kept in conventional housing (5–10 mice per cage) and had access to standard rodent chow and tap water ad libitum. The transgenic mice were aged at the local AstraZeneca (AZ) animal facilities. On the day of study, the mice were weighed. MRK-560 (synthesized in-house; AZ) or vehicle was administered by oral gavage. Three types of vehicles were used: (1) 1% MCC/NaCMC (Microcrystalline Cellulose/Sodiumcarboxymethyl Cellulose) +0.6% lipoid S100, (2) 20% HPβCD in 0.1 mol/L Meglumine, and (3) 40% HPβCD in 0.3 mol/L Meglumine. Observations of the animals’ health were made throughout all the experiments. Data from 23 MRK-560 studies were used in this analysis and details of all studies can be found in Table 1. For the AP analysis, data from vehicle and untreated Tg2576 mice from 48 additional (i.e., non-MRK-560) in-house studies were used. The additional dataset consisted of Aβ levels measured in Tg2576 mice of various ages, between 3.5 and 26 months at termination. Details of those data can be found in Appelkvist et al. ([2011]). In total, data from 71 preclinical studies were used.
(§2) After blood sampling, mice were sacrificed by decapitation followed by brain samples collection. Cerebellum and olfactory bulbs were removed and the forebrain was divided into left and right hemispheres, weighed, and snap frozen.
(§3) Left hemisphere of the cerebrum was sequentially extracted by diethylamine (DEA) followed by formic acid (FA) to obtain soluble and insoluble fractions of Aβ species, respectively. In short, brain tissue was sonicated in 1:18 (w/v) 0.2% DEA and 50 mmol/L NaCl, pH 11.6. After centrifugation (133,000g, 4°C, 1 h), the supernatant (soluble Aβ) was recovered, neutralized to a pH of 8.0 using 2 mol/L Tris-HCl, and immediately frozen to -70°C. The remaining pellet was sonicated in 1:18 (w/v) 70% FA. Homogenates were centrifuged at +4°C for 1 h at 133,000g. Recovered supernatants (insoluble Aβ) were neutralized to pH 7.5 with 1 mol/L Tris at 1:20 (w/v) dilutions, frozen on dry ice, and stored at −70°C until analysis.
(§4) Amyloid beta (Aβ40) and Aβ42 concentrations were measured in plasma, in soluble (DEA), and insoluble (FA) brain fractions using commercial sandwich ELISA kits (KHB3482 from Invitrogen, Carlsbad, CA, and RUO80177 from Innogenetics, Gent, Belgium). To compensate for matrix effects, plasma or brain homogenates from non-transgenic mice were used for preparation of standard curves. The lower and higher limits of quantification (LLOQ and HLOQ) were determined for each immunoassay plate based on the lowest and highest standard point, respectively. The coefficient of variation was less than20% and the accuracy was between 80% and 120%.
(§5) Statistical comparisons of the vehicle and MRK-560 treatment data were made by unpaired t-tests. The level of significance was set at P < 0.05. All analyses were performed using GraphPad Prism (GraphPad Prism Software Inc., San Diego, CA) and results were reported as mean ± SEM.

insoluble Aβ40 = assay: Insoluble (FA) brain Aβ40 levels in Tg2576 mice after MRK-560, ELISA; format: in vivo, Tg2576 transgenic mice
Excerpt: as §1, §2, §3, §4, §5

total Aβ40 = test system: total Aβ40; parameters: method as in Best et al. [2007]; conditions: 12-month-old Tg2576 mice; ref Best et al. [2007]; cited from earlier work
[4] = study 8, Tg2576, 24 weeks at start, 0.5 μmol/kg p.o., 30 days, 3 h since last dosing
[5] = study 8, Tg2576, 24 weeks at start, 6 μmol/kg p.o., 30 days, 3 h since last dosing, P < 0.05
[6] = study 9, Tg2576, 24 weeks at start, 0.5 μmol/kg p.o., 94 days, 3 h since last dosing
[7] = study 9, Tg2576, 24 weeks at start, 6 μmol/kg p.o., 94 days, 3 h since last dosing
[8] = study 10, Tg2576, 24 weeks at start, 1 μmol/kg p.o., 29 days, 3 h since last dosing, P < 0.05
[9] = study 10, Tg2576, 24 weeks at start, 3 μmol/kg p.o., 29 days, 3 h since last dosing, P < 0.05
[10] = study 10, Tg2576, 24 weeks at start, 6 μmol/kg p.o., 29 days, 3 h since last dosing, P < 0.05
[11] = study 11, Tg2576, 24 weeks at start, 6 μmol/kg p.o., 30 days, 3 h since last dosing, P < 0.05
[12] = study 17, Tg2576, 68 weeks at start, 6 μmol/kg p.o., 4 days, 3 h since last dosing
[13] = study 22, Tg2576, 24–28 weeks at start, 30 μmol/kg p.o., 45 days, 4.5 h since last dosing, P < 0.05
[14] = study 23, Tg2576, 37–40 weeks at start, 30 μmol/kg p.o., 28 days, 4.5 h since last dosing, P < 0.05

SMILES: O=S(=O)(NC1CCC(c2cc(F)ccc2F)(S(=O)(=O)c2ccc(Cl)cc2)CC1)C(F)(F)F (stereo not drawn) [MRK-560, N-[cis-4-[(4-chlorophenyl)-sulfonyl]-4-(2,5-difluorophenyl)cyclohexyl]-1,1,1-trifluoromethanesulfonamide]
- fraction unbound at 5 h, 1 μmol/L [1]: 0.0067
- decrease in soluble Aβ40 levels (soluble Aβ40 [2]): 63%
- decrease from baseline in soluble Aβ40 levels (soluble Aβ40 [3]; 70 μmol/kg single dose, young mice, 6 h after dosing): 74%
- Effect on soluble Aβ40 (soluble Aβ40 [3]; study 7, Tg2576, 20 weeks at start, 70 μmol/kg p.o., 4 days, 3 h since last dosing, P < 0.05): −72 ^* %
- Effect on soluble Aβ40 (soluble Aβ40 [3]; [4]): −6%
- Effect on soluble Aβ40 (soluble Aβ40 [3]; [5]): −45.6 ^* %
- Effect on soluble Aβ40 (soluble Aβ40 [3]; [6]): −17%
- Effect on soluble Aβ40 (soluble Aβ40 [3]; [7]): −28%
- Effect on soluble Aβ40 (soluble Aβ40 [3]; [8]): −26 ^* %
- Effect on soluble Aβ40 (soluble Aβ40 [3]; [9]): −41 ^* %
- Effect on soluble Aβ40 (soluble Aβ40 [3]; [10]): −47 ^* %
- Effect on soluble Aβ40 (soluble Aβ40 [3]; [11]): −40 ^* %
- Effect on soluble Aβ40 (soluble Aβ40 [3]; study 12, Tg2576, 25 weeks at start, 70 μmol/kg p.o., 1 day, 3 h since last dosing, P < 0.05): −76 ^* %
- Effect on soluble Aβ40 (soluble Aβ40 [3]; study 13, Tg2576, 25 weeks at start, 1 μmol/kg p.o., 4 days, 3 h since last dosing, P < 0.05): −41 ^* %
- Effect on soluble Aβ40 (soluble Aβ40 [3]; study 13, Tg2576, 25 weeks at start, 3 μmol/kg p.o., 4 days, 3 h since last dosing, P < 0.05): −56 ^* %
- Effect on soluble Aβ40 (soluble Aβ40 [3]; study 13, Tg2576, 25 weeks at start, 7.5 μmol/kg p.o., 4 days, 3 h since last dosing, P < 0.05): −69 ^* %
- Effect on soluble Aβ40 (soluble Aβ40 [3]; study 14, Tg2576, 25 weeks at start, 70 μmol/kg p.o., 1 day, samples 3, 6, 24, 48, 120 h (text: 74% at 6 h), P < 0.05): −74 ^* %
- Effect on soluble Aβ40 (soluble Aβ40 [3]; study 15, Tg2576, 36 weeks at start, 6 μmol/kg p.o., vehicle 3, 8 days, 3 h since last dosing, P < 0.05): −50 ^* %
- Effect on soluble Aβ40 (soluble Aβ40 [3]; study 16, Tg2576, 60 weeks at start, 6 μmol/kg p.o., 4 days, 3 h since last dosing): −17%
- Effect on soluble Aβ40 (soluble Aβ40 [3]; [12]): −6.3%
- Effect on soluble Aβ40 (soluble Aβ40 [3]; study 18, Tg2576, 81–89 weeks at start, 70 μmol/kg p.o., 1 day, samples 6, 24, 48, 96 h, time of this value not given): 8%
- Effect on soluble Aβ40 (soluble Aβ40 [3]; study 19, Tg2576, 32 weeks at start, 30 μmol/kg p.o., 4 days, 4.5 h since last dosing, P < 0.05): −55 ^* %
- Effect on soluble Aβ40 (soluble Aβ40 [3]; study 20, Tg2576, 32 weeks at start, 30 μmol/kg p.o., 21 days, 4.5 h since last dosing, P < 0.05): −70 ^* %
- Effect on soluble Aβ40 (soluble Aβ40 [3]; study 21, Tg2576, 36 weeks at start, 6 μmol/kg p.o., vehicle 3, 8 days, 3 h since last dosing, P < 0.05): −63 ^* %
- Effect on soluble Aβ40 (soluble Aβ40 [3]; [13]): −57 ^* %
- Effect on soluble Aβ40 (soluble Aβ40 [3]; [14]): −56 ^* %
- Effect on insoluble Aβ40 (insoluble Aβ40; [4]): −8%
- Effect on insoluble Aβ40 (insoluble Aβ40; [5]): −57 ^* %
- Effect on insoluble Aβ40 (insoluble Aβ40; [6]): 3%
- Effect on insoluble Aβ40 (insoluble Aβ40; [7]): 32%
- Effect on insoluble Aβ40 (insoluble Aβ40; [8]): −40 ^* %
- Effect on insoluble Aβ40 (insoluble Aβ40; [9]): −42 ^* %
- Effect on insoluble Aβ40 (insoluble Aβ40; [10]): −69 ^* %
- Effect on insoluble Aβ40 (insoluble Aβ40; [11]): −31 ^* %
- Effect on insoluble Aβ40 (insoluble Aβ40; study 15, Tg2576, 36 weeks at start, 6 μmol/kg p.o., vehicle 3, 8 days, 3 h since last dosing): 2%
- Effect on insoluble Aβ40 (insoluble Aβ40; [12]): −7.6%
- Effect on insoluble Aβ40 (insoluble Aβ40; study 20, Tg2576, 32 weeks at start, 30 μmol/kg p.o., 21 days, 4.5 h since last dosing): −70%
- Effect on insoluble Aβ40 (insoluble Aβ40; study 21, Tg2576, 36 weeks at start, 6 μmol/kg p.o., vehicle 3, 8 days, 3 h since last dosing): −30%
- Effect on insoluble Aβ40 (insoluble Aβ40; [13]): −57 ^* %
- Effect on insoluble Aβ40 (insoluble Aβ40; [14]): −67 ^* %
- decrease in total Aβ40 levels (total Aβ40): 43%
